Data taken from patent US11440947B2, “Peptides and combination of peptides for use in immunotherapy against various tumors” (Immatics Biotechnologies GmbH, priority 2015, dated 2022).

test system: CD8+ T cells; assay: In vitro immunogenicity: in vitro T-cell priming with aAPCs loaded with peptide/MHC complexes and anti-CD28, pMHC multimer readout; type: cell-based, human; details: HLA-A*02 restricted peptides; percentage of positive wells among evaluable
Source text: In order to obtain information regarding the immunogenicity of the TUMAPs of the present invention, the inventors performed investigations using an in vitro T-cell priming assay based on repeated stimulations of CD8+ T cells with artificial antigen presenting cells (aAPCs) loaded with peptide/MHC complexes and anti-CD28 antibody.
In order to perform in vitro stimulations by artificial antigen presenting cells loaded with peptide-MHC complex (pMHC) and anti-CD28 antibody, the inventors first isolated CD8+ T cells from fresh HLA-A*02 leukapheresis products via positive selection using CD8 microbeads (Miltenyi Biotec, Bergisch-Gladbach, Germany) of healthy donors obtained from the University clinics Mannheim, Germany, after informed consent. PBMCs and isolated CD8+ lymphocytes were incubated in T-cell medium (TCM) until use consisting of RPMI-Glutamax (Invitrogen, Karlsruhe, Germany) supplemented with 10% heat inactivated human AB serum (PAN-Biotech, Aidenbach, Germany), 100 U/ml Penicillin/100 μg/ml Streptomycin (Cambrex, Cologne, Germany), 1 mM sodium pyruvate (CC Pro, Oberdorla, Germany), 20 μg/ml Gentamycin (Cambrex). 2.5 ng/ml IL-7 (PromoCell, Heidelberg, Germany) and 10 U/ml IL-2 (Novartis Pharma, Nürnberg, Germany) were also added to the TCM at this step. Generation of pMHC/anti-CD28 coated beads, T-cell stimulations and readout was performed in a highly defined in vitro system using four different pMHC molecules per stimulation condition and 8 different pMHC molecules per readout condition.
The purified co-stimulatory mouse IgG2a anti human CD28 Ab 9.3 (Jung et al., 1987) was chemically biotinylated using Sulfo-N-hydroxysuccinimidobiotin as recommended by the manufacturer (Perbio, Bonn, Germany). Beads used were 5.6 μm diameter streptavidin coated polystyrene particles (Bangs Laboratories, Illinois, USA).
pMHC used for positive and negative control stimulations were A*0201/MLA-001 (peptide […] (SEQ ID NO. 289) from modified Melan-A/MART-1) and A*0201/DDX5-001 ([…] from DDX5, SEQ ID NO. 290), respectively.
800.000 beads/200 μl were coated in 96-well plates in the presence of 4×12.5 ng different biotin-pMHC, washed and 600 ng biotin anti-CD28 were added subsequently in a volume of 200 μl. Stimulations were initiated in 96-well plates by co-incubating […] CD8+ T cells with 2×10^5 washed coated beads in 200 μl TCM supplemented with 5 ng/ml IL-12 (PromoCell) for 3 days at 37° C. Half of the medium was then exchanged by fresh TCM supplemented with 80 U/ml IL-2 and incubating was continued for 4 days at 37° C. This stimulation cycle was performed for a total of three times. For the pMHC multimer readout using 8 different pMHC molecules per condition, a two-dimensional combinatorial coding approach was used as previously described (Andersen et al., 2012) with minor modifications encompassing coupling to 5 different fluorochromes. Finally, multimeric analyses were performed by staining the cells with Live/dead near IR dye (Invitrogen, Karlsruhe, Germany), CD8-FITC antibody clone SK1 (BD, Heidelberg, Germany) and fluorescent pMHC multimers. For analysis, a BD LSRII SORP cytometer equipped with appropriate lasers and filters was used. Peptide specific cells were calculated as percentage of total CD8+ cells. Evaluation of multimeric analysis was done using the FlowJo software (Tree Star, Oreg., USA). In vitro priming of specific multimer+CD8+ lymphocytes was detected by comparing to negative control stimulations.
Exemplary flow cytometry results after TUMAP-specific multimer staining for 15 peptides of the invention are shown in FIGS. 3 and 6 together with corresponding negative controls.

Row | Substance | Wells positive [%]
1 | 77 (ALYGNVQQV; listed as Homo sapiens) [compound 77] | + (<20% = +)
2 | 27 (GLLGKVTSV; listed as Homo sapiens) [compound 27] | + (<20% = +)
3 | 157 (ILQDGQFLV; listed as Homo sapiens) [compound 157] | + (<20% = +)
4 | 14 (YTFSGDVQL; listed as Homo sapiens) [compound 14] | + (<20% = +)
5 | 257 (KLIDHQGLYL; listed as Homo sapiens) [compound 257] | + (<20% = +)
6 | 50 (ILLSVLHQL; listed as Homo sapiens) [compound 50] | + (<20% = +)
7 | 242 (KLQEEIPVL; listed as Homo sapiens) [compound 242] | + (<20% = +)
8 | 236 (KMSELQTYV; listed as Homo sapiens) [compound 236] | + (<20% = +)
9 | 233 (SLFESLEYL; listed as Homo sapiens) [compound 233] | + (<20% = +)
10 | 263 (SIIEYLPTL; listed as Homo sapiens) [compound 263] | + (<20% = +)
11 | 89 (SLAETIFIV; listed as Homo sapiens) [compound 89] | + (<20% = +)
12 | 35 (VIIKGLEEI; listed as Homo sapiens) [compound 35] | + (<20% = +)
13 | 260 (ALNESLVEC; listed as Homo sapiens) [compound 260] | + (<20% = +)
14 | 66 (AMFPDTIPRV; listed as Homo sapiens) [compound 66] | + (<20% = +)
15 | 39 (YLEDGFAYV; listed as Homo sapiens) [compound 39] | ++++ (>=70% = ++++)
16 | 121 (ALYVQAPTV; listed as Homo sapiens) [compound 121] | + (<20% = +)
17 | 4 (VLFGELPAL; listed as Homo sapiens) [compound 4] | + (<20% = +)
18 | 9 (SLITGQDLLSV; listed as Homo sapiens) [compound 9] | + (<20% = +)
19 | 17 (GLLPSAESIKL; listed as Homo sapiens) [compound 17] | + (<20% = +)
20 | 102 (GLYPVTLVGV; listed as Homo sapiens) [compound 102] | + (<20% = +)
21 | 264 (TLHDQVHLL; listed as Homo sapiens) [compound 264] | + (<20% = +)
22 | 255 (FLMKNSDLYGA; listed as Homo sapiens) [compound 255] | + (<20% = +)
23 | 267 (YLLDMPLWYL; listed as Homo sapiens) [compound 267] | + (<20% = +)
24 | 246 (ALAGIVTNV; listed as Homo sapiens) [compound 246] | + (<20% = +)
25 | 254 (ALGDKFLLRV; listed as Homo sapiens) [compound 254] | + (<20% = +)
26 | 29 (KMISAIPTL; listed as Homo sapiens) [compound 29] | + (<20% = +)
27 | 97 (KLFEKSTGL; listed as Homo sapiens) [compound 97] | + (<20% = +)
28 | 101 (SLLEVNEASSV; listed as Homo sapiens) [compound 101] | + (<20% = +)
29 | 34 (TLNTLDINL; listed as Homo sapiens) [compound 34] | ++++ (>=70% = ++++)

same assay, conditions: percentage of positive donors; CD8+ T cells of healthy HLA-A*02 donors, three stimulation cycles, multimer staining

Row | Substance | donors
30 | 288 (SLYKGLLSV; listed as Homo sapiens) [compound 288] | ++++ (>= 70% = ++++)
31 | 287 (KIQEILTQV; listed as Homo sapiens) [compound 287] | +++ (50%-69%- +++)

same assay, conditions: percentage of positive wells; CD8+ T cells of healthy HLA-A*02 donors, three stimulation cycles, multimer staining

Row | Substance | wells
32 | 287 (KIQEILTQV; listed as Homo sapiens) [compound 287] | + (<20% = +)

molecular target: HLA-A*02:01 (Homo sapiens, UniProt P04439, D140Y/D185E/D98H/E176V/E277Q/G131W/G231S/I119V/I121R/I166T/I218V/L300P/L318F/N151K/N90K/P208A/P217A/Q86G/Q94H/R138H/R169H/T345S); assay: MHC binding assay: UV-ligand exchange, ELISA on beta2m of stabilized MHC complexes (peptide exchange yield); details: binding to HLA-A*02:01, UV-ligand exchange, β2m ELISA
Source text: Candidate peptides for T cell based therapies according to the present invention were further tested for their MHC binding capacity (affinity). The individual peptide-MHC complexes were produced by UV-ligand exchange, where a UV-sensitive peptide is cleaved upon UV-irradiation, and exchanged with the peptide of interest as analyzed. Only peptide candidates that can effectively bind and stabilize the peptide-receptive MHC molecules prevent dissociation of the MHC complexes. To determine the yield of the exchange reaction, an ELISA was performed based on the detection of the light chain (β2m) of stabilized MHC complexes. The assay was performed as generally described in Rodenko et al. (Rodenko et al., 2006).
96 well MAXISorp plates (NUNC) were coated over night with 2 ug/ml streptavidin in PBS at room temperature, washed 4× and blocked for 1 h at 37° C. in 2% BSA containing blocking buffer. Refolded HLA-A*02:01/MLA-001 monomers served as standards, covering the range of 15-500 ng/ml. Peptide-MHC monomers of the UV-exchange reaction were diluted 100 fold in blocking buffer. Samples were incubated for 1 h at 37° C., washed four times, incubated with 2 ug/ml HRP conjugated anti-β2m for 1 h at 37° C., washed again and detected with TMB solution that is stopped with […]. Absorption was measured at 450 nm. Candidate peptides that show a high exchange yield (preferably higher than 50%, most preferred higher than 75%) are generally preferred for a generation and production of antibodies or fragments thereof, and/or T cell receptors or fragments thereof, as they show sufficient avidity to the MHC molecules and prevent dissociation of the MHC complexes.

Row | Substance | Peptide exchange (MHC class I binding score, peptide exchange yield)
33 | 178 (SLVSWQLLL; listed as Homo sapiens) [compound 178] | ++++ (>75% = ++++)
34 | 269 (GLLDCPIFL; listed as Homo sapiens) [compound 269] | ++++ (>75% = ++++)
35 | 161 (NLLDENVCL; listed as Homo sapiens) [compound 161] | ++++ (>75% = ++++)
36 | 92 (RLFEEVLGV; listed as Homo sapiens) [compound 92] | ++++ (>75% = ++++)
37 | 6 (FLNAIETAL; listed as Homo sapiens) [compound 6] | ++++ (>75% = ++++)
38 | 17 (GLLPSAESIKL; listed as Homo sapiens) [compound 17] | ++++ (>75% = ++++)
39 | 234 (VLLNEILEQV; listed as Homo sapiens) [compound 234] | ++++ (>75% = ++++)
40 | 84 (FLLEREQLL; listed as Homo sapiens) [compound 84] | ++++ (>75% = ++++)
41 | 1 (KLQEKIQEL; listed as Homo sapiens) [compound 1] | ++++ (>75% = ++++)
42 | 206 (GLDAFRIFL; listed as Homo sapiens) [compound 206] | ++++ (>75% = ++++)
